Measurements taken from patent US8192962B2, “Processes for detecting toxic substances” (Daikin Industries, Ltd., priority 2001, dated 2012).

Test system: Unknown protein yeast genes
Assay: DNA chip mRNA expression in yeast, unknown protein yeast genes (Table 1)
Assay type: cell-based, Saccharomyces cerevisiae S288C
Method: Yeast (Saccharomyces cerevisiae S288C (α SUC2mal mel gap2 CUP1)) were incubated at 25° C. on YPD medium (yeast extract 1%, polypepton 2%, glucose 2%). One of toxic chemical substances was added to the cells at logarithmic growth phase, and the cells were further incubated for two hours. Cells were cultured without any chemical substance in the same condition, and were used as control. Concentrations of the chemical substances were defined to inhibit the growth of the yeast but not lead to death.
After completion of the incubation, the culture was centrifuged to collect the cells. To the cells, sodium acetate buffer (50 mM sodium acetate, 10 mM EDTA, 1% SDS) was added, and the mixture was shaken at 65° C. for five minutes, followed by returning to room temperature, and obtaining the supernatant, of which the procedures were repeated two times. To the supernatant, ½ amount of a solution of phenol/chloroform was added, and the mixture was centrifuged to give a supernatant, which was added with an equal amount of chloroform, and the mixture was centrifuged to give a supernatant. To the supernatant, an equal amount of isopropanol containing 0.3 M sodium acetate was added, and the mixture was allowed to stand at room temperature for 30 minutes, after which the mixture was centrifuged to give a sediment of the whole RNAs. Seventy % ethanol was added to the sediment, and the mixture was again centrifuged to give a sediment, which was then dried and dissolved in water. mRNA was isolated from the whole RNAs as followings. In view of the fact that a poly A chain is attached to the 3′ terminus of mRNA, a polynucleotide having a poly T structure which was immobilized on the surface of latex beads was used to trap the mRNA, and then the mRNA was washed and eluted with spine column (Oligotex-dT30<Super>mRNA Purification Kit, Takara). Reverse transcription of the mRNA was conducted with a reverse transcriptase (Super Script II Reverse Transcriptase; catalogue No. 18064-014, GibcoBRL) using fluorescence-labeled nucleotides to give cDNAs that were introduced with Cy3-dUTP or Cy5-dUTP during the reverse transcription.
The labeled cDNAs were dissolved in TE buffer (10mM Tris-HCl/1 mM EDTA, pH8.0), and the solution was dropped on the DNA chip containing the whole genes of yeast (DNA Chip Research Inc. Japan) so that the cDNAs were hybridized on the DNA chip at 65° C. for over 12 hours. The fluoresces intensity of the DNA chip was read with a scanner, and the ratio relative to the fluorescence intensity resulting from the absence of chemical substance was estimated as the following, which is shown in Tables 1 to 9: […]

SMILES: N#Cc1c(Cl)c(Cl)c(Cl)c(C#N)c1Cl [(9), 2,4,5,6-tetrachloro-1,3-benzenedicarbonitrile]
- The level of expressed mRNA in the presence of chemical substance/The level of expressed mRNA in the absence of chemical substance (yeast gene YKL195W, incubated two hours with chemical substance): 3.6
- The level of expressed mRNA in the presence of chemical substance/The level of expressed mRNA in the absence of chemical substance (yeast gene YKR018C): 3.9
- The level of expressed mRNA in the presence of chemical substance/The level of expressed mRNA in the absence of chemical substance (yeast gene YKR046C): 3.9
- The level of expressed mRNA in the presence of chemical substance/The level of expressed mRNA in the absence of chemical substance (yeast gene YKR091W, incubated two hours with chemical substance): 1.0
- The level of expressed mRNA in the presence of chemical substance/The level of expressed mRNA in the absence of chemical substance (yeast gene YLR054C, incubated two hours with chemical substance): 2.7
- The level of expressed mRNA in the presence of chemical substance/The level of expressed mRNA in the absence of chemical substance (yeast gene YLR149C, incubated two hours with chemical substance): 6.2
- The level of expressed mRNA in the presence of chemical substance/The level of expressed mRNA in the absence of chemical substance (yeast gene YLR152C, incubated two hours with chemical substance): 0.6
- The level of expressed mRNA in the presence of chemical substance/The level of expressed mRNA in the absence of chemical substance (yeast gene YLR161W): 1.0
- The level of expressed mRNA in the presence of chemical substance/The level of expressed mRNA in the absence of chemical substance (yeast gene YLR177W): 1.0
- The level of expressed mRNA in the presence of chemical substance/The level of expressed mRNA in the absence of chemical substance (yeast gene YLR194C, incubated two hours with chemical substance): 0.9
- The level of expressed mRNA in the presence of chemical substance/The level of expressed mRNA in the absence of chemical substance (yeast gene YLR324W, incubated two hours with chemical substance): 3.1
- The level of expressed mRNA in the presence of chemical substance/The level of expressed mRNA in the absence of chemical substance (yeast gene YLR338W): 7.9
- The level of expressed mRNA in the presence of chemical substance/The level of expressed mRNA in the absence of chemical substance (yeast gene YLR346C): 8.6
- The level of expressed mRNA in the presence of chemical substance/The level of expressed mRNA in the absence of chemical substance (yeast gene YLR350W, incubated two hours with chemical substance): 0.6
- The level of expressed mRNA in the presence of chemical substance/The level of expressed mRNA in the absence of chemical substance (yeast gene YLR387C, incubated two hours with chemical substance): 7.8
- The level of expressed mRNA in the presence of chemical substance/The level of expressed mRNA in the absence of chemical substance (yeast gene YLR460C): 13.9
- The level of expressed mRNA in the presence of chemical substance/The level of expressed mRNA in the absence of chemical substance (yeast gene YML117W, incubated two hours with chemical substance): 1.0
- The level of expressed mRNA in the presence of chemical substance/The level of expressed mRNA in the absence of chemical substance (yeast gene YMR009W, incubated two hours with chemical substance): 3.4
- The level of expressed mRNA in the presence of chemical substance/The level of expressed mRNA in the absence of chemical substance (yeast gene YMR067C, incubated two hours with chemical substance): 4.0
- The level of expressed mRNA in the presence of chemical substance/The level of expressed mRNA in the absence of chemical substance (yeast gene YMR090W): 16.7
- The level of expressed mRNA in the presence of chemical substance/The level of expressed mRNA in the absence of chemical substance (yeast gene YMR097C, incubated two hours with chemical substance): 2.1
- The level of expressed mRNA in the presence of chemical substance/The level of expressed mRNA in the absence of chemical substance (yeast gene YMR102C, incubated two hours with chemical substance): 1.7
- The level of expressed mRNA in the presence of chemical substance/The level of expressed mRNA in the absence of chemical substance (yeast gene YMR107W, incubated two hours with chemical substance): 6.0
- The level of expressed mRNA in the presence of chemical substance/The level of expressed mRNA in the absence of chemical substance (yeast gene YMR180C, incubated two hours with chemical substance): 1.8
- The level of expressed mRNA in the presence of chemical substance/The level of expressed mRNA in the absence of chemical substance (yeast gene YMR184W, incubated two hours with chemical substance): 2.1
- The level of expressed mRNA in the presence of chemical substance/The level of expressed mRNA in the absence of chemical substance (yeast gene YMR191W, incubated two hours with chemical substance): 2.2
- The level of expressed mRNA in the presence of chemical substance/The level of expressed mRNA in the absence of chemical substance (yeast gene YMR251W): 3.1
- The level of expressed mRNA in the presence of chemical substance/The level of expressed mRNA in the absence of chemical substance (yeast gene YMR295C, incubated two hours with chemical substance): 1.0
- The level of expressed mRNA in the presence of chemical substance/The level of expressed mRNA in the absence of chemical substance (yeast gene YMR316W, incubated two hours with chemical substance): 2.1
- The level of expressed mRNA in the presence of chemical substance/The level of expressed mRNA in the absence of chemical substance (yeast gene YNL044W, incubated two hours with chemical substance): 0.8
- The level of expressed mRNA in the presence of chemical substance/The level of expressed mRNA in the absence of chemical substance (yeast gene YNL074C, incubated two hours with chemical substance): 1.5
- The level of expressed mRNA in the presence of chemical substance/The level of expressed mRNA in the absence of chemical substance (yeast gene YNL092W, incubated two hours with chemical substance): 2.3
- The level of expressed mRNA in the presence of chemical substance/The level of expressed mRNA in the absence of chemical substance (yeast gene YNL115C, incubated two hours with chemical substance): 2.6
- The level of expressed mRNA in the presence of chemical substance/The level of expressed mRNA in the absence of chemical substance (yeast gene YNL156C, incubated two hours with chemical substance): 2.4
- The level of expressed mRNA in the presence of chemical substance/The level of expressed mRNA in the absence of chemical substance (yeast gene YNL234W, incubated two hours with chemical substance): 2.6
- The level of expressed mRNA in the presence of chemical substance/The level of expressed mRNA in the absence of chemical substance (yeast gene YNL281W, incubated two hours with chemical substance): 2.8
- The level of expressed mRNA in the presence of chemical substance/The level of expressed mRNA in the absence of chemical substance (yeast gene YNL305C, incubated two hours with chemical substance): 2.9
- The level of expressed mRNA in the presence of chemical substance/The level of expressed mRNA in the absence of chemical substance (yeast gene YNR068C, incubated two hours with chemical substance): 6.7
- The level of expressed mRNA in the presence of chemical substance/The level of expressed mRNA in the absence of chemical substance (yeast gene YOL032W, incubated two hours with chemical substance): 4.5
- The level of expressed mRNA in the presence of chemical substance/The level of expressed mRNA in the absence of chemical substance (yeast gene YOL036W, incubated two hours with chemical substance): 3.1
- The level of expressed mRNA in the presence of chemical substance/The level of expressed mRNA in the absence of chemical substance (yeast gene YOL047C, incubated two hours with chemical substance): 0.6
- The level of expressed mRNA in the presence of chemical substance/The level of expressed mRNA in the absence of chemical substance (yeast gene YOL071W, incubated two hours with chemical substance): 4.4
- The level of expressed mRNA in the presence of chemical substance/The level of expressed mRNA in the absence of chemical substance (yeast gene YOL082W, incubated two hours with chemical substance): 3.4
- The level of expressed mRNA in the presence of chemical substance/The level of expressed mRNA in the absence of chemical substance (yeast gene YOL083W, incubated two hours with chemical substance): 2.7
- The level of expressed mRNA in the presence of chemical substance/The level of expressed mRNA in the absence of chemical substance (yeast gene YOL117W, incubated two hours with chemical substance): 1.3
- The level of expressed mRNA in the presence of chemical substance/The level of expressed mRNA in the absence of chemical substance (yeast gene YOL131W, incubated two hours with chemical substance): 8.4
- The level of expressed mRNA in the presence of chemical substance/The level of expressed mRNA in the absence of chemical substance (yeast gene YOL150C): 10.8
- The level of expressed mRNA in the presence of chemical substance/The level of expressed mRNA in the absence of chemical substance (yeast gene YOL162W, incubated two hours with chemical substance): 12.0
- The level of expressed mRNA in the presence of chemical substance/The level of expressed mRNA in the absence of chemical substance (yeast gene YOR019W, incubated two hours with chemical substance): 3.5
- The level of expressed mRNA in the presence of chemical substance/The level of expressed mRNA in the absence of chemical substance (yeast gene YOR161C): 1.0
- The level of expressed mRNA in the presence of chemical substance/The level of expressed mRNA in the absence of chemical substance (yeast gene YOR197W, incubated two hours with chemical substance): 0.8
- The level of expressed mRNA in the presence of chemical substance/The level of expressed mRNA in the absence of chemical substance (yeast gene YPL087W, incubated two hours with chemical substance): 1.0
- The level of expressed mRNA in the presence of chemical substance/The level of expressed mRNA in the absence of chemical substance (yeast gene YPL150W): 3.1
- The level of expressed mRNA in the presence of chemical substance/The level of expressed mRNA in the absence of chemical substance (yeast gene YPL196W, incubated two hours with chemical substance): 10.9
- The level of expressed mRNA in the presence of chemical substance/The level of expressed mRNA in the absence of chemical substance (yeast gene YPL206C, incubated two hours with chemical substance): 1.7
- The level of expressed mRNA in the presence of chemical substance/The level of expressed mRNA in the absence of chemical substance (yeast gene YPL222W, incubated two hours with chemical substance): 7.4
- The level of expressed mRNA in the presence of chemical substance/The level of expressed mRNA in the absence of chemical substance (yeast gene YPL225W): 1.0
- The level of expressed mRNA in the presence of chemical substance/The level of expressed mRNA in the absence of chemical substance (yeast gene YPR023C, incubated two hours with chemical substance): 4.4
- The level of expressed mRNA in the presence of chemical substance/The level of expressed mRNA in the absence of chemical substance (yeast gene YPR151C, incubated two hours with chemical substance): 3.0
